Laboratory results from US20230044787A1, “TRICYCLE DIHYDROIMIDAZOPYRIMIDONE DERIVATIVE, PREPARATION METHOD THEREOF, PHARMACEUTICAL COMPOSITION AND USE THEREOF” (priority 2019, published 2023).

Target: T1, Lp-PLA2 (Homo sapiens, UniProt Q13093)
T1 construct: aliquoted and thawed 40 μL of pooled human plasma was previously added; from tissue; host or cells: pooled human plasma
T1 sequence (Q13093 22-441): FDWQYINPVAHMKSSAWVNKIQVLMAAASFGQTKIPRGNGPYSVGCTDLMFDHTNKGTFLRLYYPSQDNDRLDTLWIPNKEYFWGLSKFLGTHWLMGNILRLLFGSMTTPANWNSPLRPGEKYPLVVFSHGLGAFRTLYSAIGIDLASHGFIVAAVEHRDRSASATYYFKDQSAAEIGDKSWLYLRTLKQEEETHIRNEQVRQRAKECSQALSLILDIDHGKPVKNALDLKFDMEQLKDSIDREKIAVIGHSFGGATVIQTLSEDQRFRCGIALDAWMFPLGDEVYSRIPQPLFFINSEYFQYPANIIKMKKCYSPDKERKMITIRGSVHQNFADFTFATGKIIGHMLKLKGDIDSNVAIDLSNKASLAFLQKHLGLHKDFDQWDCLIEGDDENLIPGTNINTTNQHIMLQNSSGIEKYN
Test: Lipoprotein-associated phospholipase A2 (Lp-PLA2) human plasma assay (Thio-PAF assay)
Type: biochemical
Details: Lp-PLA2 human plasma assay (Thio-PAF), pooled human plasma, 30-min pre-incubation at room temperature

Row | IC50 [nM] | SMILES
1 | 15.3 | O=c1nc(OCc2cc(F)c(Oc3ccnc(C(F)(F)F)c3)c(F)c2)cc2n1CC13CCC(CC1)N23 [Example 46, 3-((3,5-difluoro-4-((2-(trifluoromethyl)pyridin-4-yl)oxy)benzyl)oxy)-7,8-dihydro-1H,6H,9H-6,8a-ethanopyrrolo[1′,2′:3,4] imidazo[1,2-c]pyrimidin-1-one]
2 | 6.5 | O=c1nc(OCc2cc(F)c(Oc3ccc(F)cc3)c(F)c2)cc2n1C[C@]13CO[C@H](CN21)C3 [Example 147]
3 | 3.6 | COc1c(OCc2ccc(F)c(C#N)c2)nc(=O)n2c1N1C[C@@H]3C[C@]1(CO3)C2 [Example 142]
4 | 9.4 | O=c1nc(OCc2cc(F)c(Oc3cnc(C(F)(F)F)nc3)c(F)c2)cc2n1CC13CCC(CC1)N23 [Example 47, 3-((3,5-difluoro-4-((2-(trifluoromethyl)pyrimidin-5-yl)oxy)benzyl)oxy)-7,8-dihydro-1H,6H,9H-6,8a-ethanopyrrolo[1′,2′:3,4] imidazo[1,2-c]pyrimidin-1-one]
5 | 62.8 | Cn1cc(Oc2c(F)cc(COc3cc4n(c(=O)n3)CC35CCC(CC3)N45)cc2F)cn1 [Example 48, 3-((3,5-difluoro-4-((1-methyl-1H-pyrazol-4-yl)oxy)benzyl)oxy)-7,8-dihydro-1H,6H,9H-6,8a-ethanopyrrolo[1′,2′:3,4] imidazo[1,2-c]pyrimidin-1-one]
6 | 3.8 | N#Cc1cc(COc2cc3n(c(=O)n2)CC24CC(F)(CN32)C4)ccc1F [Example 160]
7 | 4.8 | CC12CCCCN1c1cc(OCCc3ccc(Oc4ccc(Cl)c(C(F)(F)F)c4)cc3)nc(=O)n1C2 (centres unmarked) [Example 73, 3-(4-(4-chloro-3-(trifluoromethyl)phenoxy)phenethoxy)-9a-methyl-6,7,8,9,9a,10-hexahydro-1H-pyrido[1′,2′:3,4]imidazo [1,2-c]pyrimidin-1-one]

Row | SMILES | IC50 [nM]
8 | N#Cc1cc(COc2cc3n(c(=O)n2)CC24CCC(CC2)N34)ccc1F [Example 163, 2-fluoro-5-(((1-oxo-7,8-dihydro-1H,6H,9H-6,8a-ethanopyrrolo[1′,2′:3,4]imidazo[1,2-c]pyrimidin-3-yl)oxy)methyl)benzonitrile] | 2.4
